The record followed here is ChEMBL document CHEMBL1144822, “Gymnastatins and dankastatins, growth inhibitory metabolites of a gymnascella species from a Halichondria sponge” (2008).

≈ marks a conversion by molar mass, not a printed value.

The subject of one assay is P388. The assay can be described thus: Growth inhibition of mouse P388 cells. Format: functional. Particulars: read-out: ED50 (the source's name).
The nature of assay [1]: Growth inhibition of human BSY1 cells. Format: functional. The settings on record: BSY-1, read-out: Log10GI50 (converted).
Assay [2] deals with 39 human cancer cell line panel (Homo sapiens). Nature of the assay: Growth inhibition of 39 human cancer cell line panel. Particulars: read-out: Log10GI50 (converted).
A further assay concerns MKN-7. Nature of the assay: Growth inhibition of human MKN7 cells. The assay is classed as functional. The settings on record: read-out: Log10GI50 (converted).

As to `CCCCCC[C@@H](C)/C=C(C)/C=C/C(=O)N[C@H]1C[C@@]2(O)C=C(Cl)C(=O)[C@@H](Cl)[C@H]2O[C@@H]1OC` [DANKASTATIN A], the EC50 in the assay with P388 worked out at 0.15 µg/mL (≈ 0.307 µM).

Consider `CCCCCC[C@@H](C)/C=C(C)/C=C/C(=O)N[C@H]1C[C@]2(O)C=C(Cl)C(=O)[C@@](Cl)(C2)[C@H]1O` [GYMNASTATIN R], for which the EC50 in the assay on P388 stood at 2.8 µg/mL (≈ 6.11 µM).

Regarding `CCCCCC[C@@H](C)/C=C(C)/C=C/C(=O)N[C@@H]1CO[C@H]2[C@@H](Cl)C(=O)C(Cl)=C[C@@]2(O)C1` [DANKASTATIN B], in the assay on P388, the EC50 stood at 0.16 µg/mL (≈ 0.349 µM).

As to `CCCCCC[C@@H](C)/C=C(C)/C=C/C(=O)N[C@H]1C[C@]2(O)C=C(Cl)C(=O)[C@](Cl)([C@@H]1O)[C@H]2OC` [GYMNASTATIN Q], the results for the GI50 (in assay [1]; in assay [2]; with MKN-7) were 3.39 µM, 15.5 µM and 6.76 µM, respectively. Besides, the EC50 in the assay on P388 amounted to 1.7 µg/mL (≈ 3.48 µM).
